Test results: PMC12697895, “Vinburnine Sensitizes Radiotherapy Efficacy in Nasopharyngeal Carcinoma by Triggering Pyroptosis and Immune Responses via Activation of EDAR‐NFκB Pathway” (Advanced Science, 2025)

Target: T1, EDAR (endogenous, SUNE1 cells) (Homo sapiens, UniProt Q9UNE0)
T1 construct: endogenous protein in SUNE1 cells, detected by Western blot
T1 sequence (Q9UNE0 27-448): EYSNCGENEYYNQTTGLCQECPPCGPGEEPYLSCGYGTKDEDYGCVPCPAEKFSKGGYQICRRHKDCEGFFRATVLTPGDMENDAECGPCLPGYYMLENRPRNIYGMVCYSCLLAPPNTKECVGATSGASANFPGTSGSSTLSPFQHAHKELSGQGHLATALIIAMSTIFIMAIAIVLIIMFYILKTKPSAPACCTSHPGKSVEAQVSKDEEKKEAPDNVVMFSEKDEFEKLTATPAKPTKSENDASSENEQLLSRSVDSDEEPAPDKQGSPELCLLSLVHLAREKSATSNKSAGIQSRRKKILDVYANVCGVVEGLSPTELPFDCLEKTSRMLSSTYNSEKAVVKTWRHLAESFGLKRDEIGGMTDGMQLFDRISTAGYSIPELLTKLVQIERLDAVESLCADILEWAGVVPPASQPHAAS
Assay: CETSA (Western blot)
Format: cell-based
Conditions: 10 µM vinburnine, intact SUNE1 cells, 12 h; six temperatures, 10 min

## CC[C@]12CCCN3CCc4c(n(c5ccccc45)C(=O)C1)[C@@H]32 [vinburnine]
  CETSA (Western blot): EDAR was more stable in vinburnine‐pretreated samples than in control samples at various temperatures
